Data: patent US4952408A, “Liposome-encapsulated vinca alkaloids and their use in combatting tumors” (priority 1988, dated 1990)
≈ marks a conversion by molar mass, not a printed value. Read-outs that look alike come from different tables or passages of the source.

Key:
[1] = total doses in excess of 2 mg; cited from earlier work
[2] = plasma pharmacokinetics of free and liposomal vincristine (radioimmunoassay); format: in vivo, CD2 F1 mice
Experimental: (§1) CD2 F1 mice were administered vincristine as a free drug at a dose of 1 mg kg^-1 and liposomal entrapped vincristine at a dose of 1 mg kg^-1 and 5 mg kg^-1 via a lateral tail vein. At sequential time points, four mice in each treatment group were sacrificed and specific tissues were isolated and assayed for drug levels by radioimmunoassay as adapted in our laboratories.

[3] = lethal toxicity in normal mice after single i.v. injection; format: in vivo, CD2 F1 mice
L1210 Leukemia = assay: antitumor evaluation against L1210 leukemia in mice; format: in vivo, CD2 F1 mice; conditions: for % ILS (percentage of increase in life span) / Long Term Survivors (50 days) / Median Survival: single dose
Experimental: The L1210 leukemia was maintained by serial passage i.p. in DBA/2F1 female mice. For antitumor studies, 2×10^5 cells of L1210 leukemia were implanted i.p. in CD2 F1 male mice (22-25 g). […] Each drug treated group and saline treated leukemic control group was composed of eight mice. […] Data are expressed as % of ILS (percentage of increase in life span). Median life spans were calculated from grouped median survival times and % of increase in life was calculated as: [formula] Experiments were terminated on day 50. Mice alive on that day were termed "cures" and were included in the calculation of median survival time of treated mice. The saline treated or blank liposomes treated controls had the median survival of 11 days. Free vincristine at a dose of 2 mg kg^-1 provided a median survival of 14.5 days with a % ILS of 32 with 2/8 long-term survivals. […] In contrast, the doses of vincristine entrapped in liposomes provided a much higher therapeutic response in mice bearing L1210 leukemia. […] In addition, higher doses of vincristine administered in liposomes produced significant therapeutic response with majority of leukemia bearing mice surviving at day 50.
CD2 F1 mice were implanted intraperitoneally with 2 ×
10^5 leukemia cells and drug treatment was given intravenously on day

[4] = tissue drug levels of free and liposomal vincristine (radioimmunoassay); format: in vivo, CD2 F1 mice; conditions: for concentration at 5 min / concentration at 0.25 h / concentration at 0.5 h / concentration at 1 h / concentration at 2 h / concentration at 4 h / concentration at 8 h / concentration at 24 h: mouse, iv, 1 mg/kg; for concentration at 0.25 h: 15'; for concentration at 0.5 h: 30'
Experimental: as §1

[5] = system: non-Hodgkin's and Hodgkins lymphomas, acute lymphoblastic leukemia, Wilm's tumor, rhabdomyosarcoma, and neuroblastoma; conditions: in vivo; cited from earlier work
L1210 Leukemia cells = assay: in vitro cytotoxicity against L1210 leukemia cells (trypan blue exclusion); format: cell-based; conditions: Mus musculus; L1210 murine leukemia cells; 24 h treatment at 37° C., counted at 48 and 72 hours
Experimental: L1210 Leukemia cells were grown in suspension in air with 5% CO2 in RPMI Medium 1640 supplemented with 10% fetal calf serum and gentamicin (50 μg/ml). Log phase cells (10 ml) at an innoculum of 1×10^5 cells/ml of medium in 25 cm^2 plastic flasks were treated with either free vincristine or liposomal entrapped vincristine at different doses for 24 hours at 37° C. After drug treatment, cells were transferred to Falcon tubes and centrifuged for 10 minutes at 600 rpm. The supernatant media were discarded and the cell pellet was washed 3 times with RPMI Media 1640. The final cell pellet was resuspended in 10 ml of RPMI media and transferred to 25 cm^2 plastic flasks and incubated at 37° C. in air with 5% CO2 for growth. At 48 and 72 hours, an aliquot of cells from each flask were taken and were counted for viability by trypan blue exclusion under microscope. The number of cells proliferating in each flask were determined with respect to control. FIG. 3 represents the percent survival of cells when treated with free vincristine or vincristine entrapped in liposomes.

[6] = brain, brain, 1.0 mg, read-out: vincristine level, brain
[7] = kidney, kidney, 1.0 mg, read-out: vincristine level, kidney
[8] = liver, liver, 1.0 mg, read-out: vincristine level, liver
[9] = lung, lung, 1.0 mg, read-out: vincristine level, lung
[10] = spleen, spleen, 1.0 mg, read-out: vincristine level, spleen

CC[C@]1(O)C[C@H]2CN(CCc3c([nH]c4ccccc34)[C@@](C(=O)OC)(c3cc4c(cc3OC)N(C=O)[C@H]3[C@@](O)(C(=O)OC)[C@H](OC(C)=O)[C@]5(CC)C=CCN6CC[C@]43[C@@H]65)C2)C1 [free vincristine, vincristine]
neurotoxicity [1]: often associated with a progressive and disabling neurotoxicity
apparent volume of distribution ([2]; i.v.): apparent large volume of distribution
clearance of drug from plasma ([2]; i.v.): much faster clearance of drug from plasma
concentration at 5 min ([2]; mouse, iv, 1 mg/kg, plasma, 1.0 mg, 5', read-out: plasma level): 0.63 µg/mL
concentration at 0.25 h ([2]; mouse, iv, 1 mg/kg, plasma, 1.0 mg, 15', read-out: plasma level): 0.6 µg/mL
concentration at 0.5 h ([2]; mouse, iv, 1 mg/kg, plasma, 1.0 mg, 30', read-out: plasma level): 0.2 µg/mL
concentration at 1 h ([2]; mouse, iv, 1 mg/kg, plasma, 1.0 mg, 1h, read-out: plasma level): 0.1 µg/mL
concentration at 2 h ([2]; mouse, iv, 1 mg/kg, plasma, 1.0 mg, 2h, read-out: plasma level): 0.05 µg/mL
Cmax at 5 min ([2]; mouse, plasma, iv, 1 mg kg^-1 i.v., 5 minutes, read-out: peak plasma level at 5 minutes): 0.62 µg/mL
lethality ([3]; 2 mg kg^-1 i.v., to day 60): without any lethality
mortality at 192 h ([3]; mouse, in vivo, iv, 3 mg kg^-1 i.v., read-out: mice dead by day 8): 90%
% ILS (percentage of increase in life span) (L1210 Leukemia; 2.0 mg/kg i.v.): 32%
Long Term Survivors (50 days) (L1210 Leukemia; 2.0 mg/kg i.v.): 2/8
Median Survival (L1210 Leukemia; 2.0 mg/kg i.v.): 14.5 days
death of tumor bearing mice (drug toxicity) (L1210 Leukemia; 3 mg kg^-1 i.v.): All the animals in this group were dead by day 10
% ILS (percentage of increase in life span) (L1210 Leukemia; 3.0 mg/kg i.v.): -32%
Long Term Survivors (50 days) (L1210 Leukemia; 3.0 mg/kg i.v.): 0/8
Median Survival (L1210 Leukemia; 3.0 mg/kg i.v.): 7.5 days
levels of drug in brain, free compared with liposomal vincristine ([4]; brain, 1 or 5 mg kg^-1 liposomal): higher than liposomal vincristine
drug level in liver ([4]; liver, 1 mg kg^-1, 8 hours): undetectable
levels in lung, free compared with liposomal vincristine ([4]; lung, 1 mg kg^-1, different periods): comparable
concentration at 5 min [4, 6]: 28 ng/g
concentration at 0.25 h [4, 6]: 21 ng/g
concentration at 0.5 h [4, 6]: 20 ng/g
concentration at 1 h [4, 6]: 21 ng/g
concentration at 2 h ([4]; brain, brain, 1.0 mg, 2h, read-out: vincristine level, brain): 21 ng/g
concentration at 4 h [4, 6]: 29 ng/g
concentration at 8 h [4, 6]: 29 ng/g
concentration at 24 h [4, 6]: 19 ng/g
concentration at 5 min [4, 7]: 65 ng/g
concentration at 0.25 h [4, 7]: 64 ng/g
concentration at 0.5 h [4, 7]: 62 ng/g
concentration at 1 h [4, 7]: 47 ng/g
concentration at 2 h ([4]; kidney, kidney, 1.0 mg, 2h, read-out: vincristine level, kidney): 47 ng/g
concentration at 4 h [4, 7]: 20 ng/g
concentration at 8 h [4, 7]: 18 ng/g
concentration at 24 h [4, 7]: 2 ng/g
concentration at 2 h ([4]; liver, liver, 1 mg kg^-1, 2 hours, read-out: drug level in liver): 50 ng/g
concentration at 5 min [4, 8]: 200 ng/g
concentration at 0.25 h [4, 8]: 161 ng/g
concentration at 0.5 h [4, 8]: 121 ng/g
concentration at 1 h [4, 8]: 84 ng/g
concentration at 2 h ([4]; liver, liver, 1.0 mg, 2h, read-out: vincristine level, liver): 47 ng/g
concentration at 4 h [4, 8]: 10 ng/g
concentration at 5 min [4, 9]: 80 ng/g
concentration at 0.25 h [4, 9]: 78 ng/g
concentration at 0.5 h [4, 9]: 80 ng/g
concentration at 1 h [4, 9]: 75 ng/g
concentration at 2 h ([4]; lung, lung, 1.0 mg, 2h, read-out: vincristine level, lung): 77 ng/g
concentration at 4 h [4, 9]: 64 ng/g
concentration at 8 h [4, 9]: 58 ng/g
concentration at 24 h [4, 9]: 4 ng/g
concentration at 5 min [4, 10]: 83 ng/g
concentration at 0.25 h [4, 10]: 84 ng/g
concentration at 0.5 h [4, 10]: 72 ng/g
concentration at 1 h [4, 10]: 86 ng/g
concentration at 2 h ([4]; spleen, spleen, 1.0 mg, 2h, read-out: vincristine level, spleen): 112 ng/g
concentration at 4 h [4, 10]: 112 ng/g
concentration at 8 h [4, 10]: 61 ng/g
concentration at 24 h [4, 10]: 43 ng/g
antitumor activity [5]: substantial activity
IC50 (L1210 Leukemia cells): 4 ng/mL (≈ 4.85 nM)
